Assay results from PubChem BioAssay (NCI).
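GI50 marks 50% less growth. TGI denotes the concentration required for complete inhibition of growth.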

Tests used:
Assay in all cases: growth of human tumour cells (NCI), 384-well format
[1] = tested on: NCI-H226 lung
[2] = tested on: SNB-75 CNS
[3] = tested on: A498 renal
[4] = tested on: OVCAR-8 ovarian
[5] = tested on: SF-539 CNS
[6] = tested on: RPMI-8226 leukemia
[7] = tested on: NCI-H460 NSCLC
[8] = tested on: NCI/ADR-RES ovarian
[9] = tested on: DU-145 prostate
[10] = tested on: SK-MEL-2 melanoma
[11] = tested on: T-47D breast
[12] = tested on: MDA-MB-435 melanoma
[13] = tested on: MDA-MB-231 breast
[14] = tested on: UACC-62 melanoma
[15] = tested on: PC-3 prostate
[16] = tested on: ACHN renal
[17] = tested on: TK-10 renal
[18] = tested on: OVCAR-4 ovarian
[19] = tested on: HT29 colon
[20] = tested on: NCI-H322M lung
[21] = tested on: OVCAR-5 ovarian
[22] = tested on: BT-549 breast
[23] = tested on: U251 glioblastoma
[24] = tested on: SF-268 CNS
[25] = tested on: K-562 leukemia
[26] = tested on: UACC-257 melanoma
[27] = tested on: SK-MEL-5 melanoma
[28] = tested on: SN12C renal
[29] = tested on: CCRF-CEM leukemia
[30] = tested on: SNB-19 CNS
[31] = tested on: UO-31 renal
[32] = tested on: HOP-62 NSCLC
[33] = tested on: SW-620 colon
[34] = tested on: NCI-H23 lung
[35] = tested on: IGROV1 ovarian
[36] = tested on: NCI-H522 lung
[37] = tested on: M14 melanoma
[38] = tested on: SK-OV-3 ovarian
[39] = tested on: CAKI-1 renal
[40] = tested on: MDA-MB-468 breast
[41] = tested on: HL-60(TB) leukemia
[42] = tested on: RXF 393 renal
[43] = tested on: HOP-92 NSCLC
[44] = tested on: HCT-116 colon
[45] = tested on: HCC-2998 colon
[46] = tested on: KM12 colon
[47] = tested on: SR leukemia

Work on `CC(C)(O)CNc1nc(Nc2ccnc(C(F)(F)F)c2)nc(-c2cccc(C(F)(F)F)n2)n1` yielded a GI50 [1] of 16.2 µM, a TGI [1] of 31.7 µM and a GI50 [2] of 18.8 µM. The TGI [2] was 37.2 µM, the GI50 [3] was 19.9 µM and the TGI [3] was 39.9 µM. For the same compound, the GI50 [4] was 17.4 µM, the TGI [4] was 38.3 µM and the GI50 [5] was 16.3 µM. For the same compound, the TGI [5] was 30.9 µM, the GI50 [6] was 18.7 µM and the TGI [6] was 32.9 µM. It also gave a GI50 [7] of 17.5 µM, a TGI [7] of 32.6 µM and a GI50 [8] of 13.9 µM. The TGI [8] was 27.5 µM, the GI50 [9] was 16.3 µM and the TGI [9] was 31.6 µM. It also gave a GI50 [10] of 0.265 µM, a TGI [10] of 1.17 µM and a GI50 [11] of 9.87 µM. It also gave a TGI [11] of 23 µM, a GI50 [12] of 19.9 µM and a TGI [12] of 37.7 µM. The GI50 [13] was 18.7 µM, the TGI [13] was 34.5 µM and the GI50 [14] was 17.8 µM. For the same compound, the TGI [14] was 31.8 µM, the GI50 [15] was 18.2 µM and the TGI [15] was 33.9 µM. For the same compound, the GI50 [16] was 20.9 µM, the TGI [16] was 40.5 µM and the GI50 [17] was 19.8 µM. The TGI [17] was 43.4 µM, the GI50 [18] was 19.7 µM and the TGI [18] was 36.3 µM. For the same compound, the GI50 [19] was 15.2 µM, the TGI [19] was 29.6 µM and the GI50 [20] was 16.1 µM. For the same compound, the TGI [20] was 31.4 µM, the GI50 [21] was 27.3 µM and the TGI [21] was 73.5 µM. The GI50 [22] was 16 µM, the TGI [22] was 29.7 µM and the GI50 [23] was 18.8 µM. For the same compound, the TGI [23] was 38.7 µM, the GI50 [24] was 20.2 µM and the TGI [24] was 40.3 µM. The GI50 [25] was 14.7 µM, the TGI [25] was 28.7 µM and the GI50 [26] was 19.4 µM. The TGI [26] was 33.8 µM, the GI50 [27] was 13.8 µM and the TGI [27] was 26.8 µM. It also gave a GI50 [28] of 19.8 µM, a TGI [28] of 40.8 µM and a GI50 [29] of 14.4 µM. It also gave a TGI [29] of 28.1 µM, a GI50 [30] of 32.3 µM and a TGI [30] of 87.2 µM. The GI50 [31] was 21.1 µM, the TGI [31] was 40.9 µM and the GI50 [32] was 15.1 µM. For the same compound, the TGI [32] was 28.8 µM, the GI50 [33] was 24.4 µM and the TGI [33] was 55.2 µM. It also gave a GI50 [34] of 18.7 µM, a TGI [34] of 35.6 µM and a GI50 [35] of 18.6 µM. It also gave a TGI [35] of 37.4 µM, a GI50 [36] of 17.5 µM and a TGI [36] of 35.4 µM. The GI50 [37] was 19.8 µM, the TGI [37] was 35.2 µM and the GI50 [38] was 20.9 µM. It also gave a TGI [38] of 40.9 µM, a GI50 [39] of 21.3 µM and a TGI [39] of 45.2 µM. For the same compound, the GI50 [40] was 20.3 µM, the TGI [40] was 35 µM and the GI50 [41] was 14.9 µM. For the same compound, the TGI [41] was 28.3 µM, the GI50 [42] was 12.3 µM and the TGI [42] was 27.5 µM. For the same compound, the GI50 [43] was 19.3 µM, the TGI [43] was 37.7 µM and the GI50 [44] was 17.3 µM. It also gave a TGI [44] of 33.2 µM, a GI50 [45] of 16.3 µM and a TGI [45] of 30.4 µM. The GI50 [46] was 17.9 µM, the TGI [46] was 34.8 µM and the GI50 [47] was 4.82 µM. For the same compound, the TGI [47] was 17.5 µM.
